Assay results reported in patent US12274696B2, “Methods of administering nalbuphine” (Trevi Therapeutics, Inc., priority 2020, dated 2025).

Assays:
clinical = conditions: human, plasma, oral
Source text: (§1) Healthy subjects receive a single dose of drug at the highest dose studied in the liver-impaired subjects in order to make relative comparison to the PK aspects of Nalbuphine extended release (ER).
(§2) Cohort 1 consists of subjects with impaired hepatic function divided into three groups with some subjects in each of the mild Child-Pugh A category (Group 1), the moderate Child-Pugh B category (Group 2), and the severe Child-Pugh category C (Group 3). Cohort 2-4 consists of subjects with impaired hepatic function divided into two groups with some subjects in each of the mild Child-Pugh A category (Group 1), and the moderate Child-Pugh B category (Group 2).
(§3) Dosing: Subjects receive a single ascending dose, under fasting condition, at the following dose levels:
(§4) Each of the cohorts is dosed sequentially starting with the lowest dose. Subjects with mild or moderate hepatic impairment enrolled in Cohort 1 are optionally enrolled in Cohorts 2, 3, and 4. For each dose cohort, enrollment of subjects with mild or moderate hepatic impairment is done in parallel. An evaluation of safety and tolerability of the combined mild and moderate hepatic impairment subject data is done at each dose level before proceeding to the next dose level.
(§5) Blood: Blood from the patients of each cohort is collected in K2EDTA tubes. The plasma fractions are separated by centrifugation and stored frozen until analysis. Blood samples are collected at the following time points: 0 h (prior to the dose), 1.5, 3, 5, 7, 9, 12, 24, 36, 48, and 72 h after the dose.

[1] = cohorts 1-4
Source text: as §1, §2, §3, §4, §5

`Cl.Oc1ccc2c3c1OC1[C@@H](O)CC[C@@]4(O)[C@@H](C2)N(CC2CCC2)CC[C@]314` (stereo partly drawn) [nalbuphine, 17-(cyclobutylmethyl)-4,5α-epoxymorphinian-3, 6α, 14-triol, hydrochloride] showed an AUC(0-t) (clinical; 27 mg, AUC0-t Mean, 27 mg single dose, Cohort 1, mild hepatic impairment (Child Pugh A)) of 48.9 ng·h/mL, an AUC(0-t) (clinical; 27 mg, AUC0-t Mean, 27 mg single dose, Cohort 1, moderate hepatic impairment (Child Pugh B)) of 244 ng·h/mL and an AUC(0-t) (clinical; 27 mg, AUC0-t Mean, 27 mg single dose, Cohort 1, severe hepatic impairment (Child Pugh C)) of 489 ng·h/mL. It also gave a Cmax (clinical; 27 mg, Cmax Mean, 27 mg single dose, Cohort 1, mild hepatic impairment (Child Pugh A)) of 3.56 ng/mL, a Cmax (clinical; 27 mg, Cmax Mean, 27 mg single dose, Cohort 1, moderate hepatic impairment (Child Pugh B)) of 14.6 ng/mL and a Cmax (clinical; 27 mg, Cmax Mean, 27 mg single dose, Cohort 1, severe hepatic impairment (Child Pugh C)) of 28.3 ng/mL. For the same molecule, the AUC(0-t) (clinical; 162 mg, mean AUC0-t, 162 mg single dose, Cohort 4, mild hepatic impairment (Child Pugh A)) was 375 ng·h/mL, the AUC(0-t) (clinical; 162 mg, mean AUC0-t, 162 mg single dose, Cohort 4, moderate hepatic impairment (Child Pugh B)) was 1230 ng·h/mL and the Cmax (clinical; 162 mg, mean Cmax, 162 mg single dose, Cohort 4, mild hepatic impairment (Child Pugh A)) was 19.9 ng/mL. For the same molecule, the Cmax (clinical; 162 mg, mean Cmax, 162 mg single dose, Cohort 4, moderate hepatic impairment (Child Pugh B)) was 65.4 ng/mL and the Half-life across cohorts [1] was “similar”.
